Literature values in the CATMoS acute toxicity set (Mansouri et al. 2021).
“And” between values parts separate entries of the source, which are not always exact repeats. Identical values can stand only once.

Experiment: rat acute oral toxicity
Details: in vivo

| Compound | LD50 |
| --- | --- |
| C#CCSP(=O)(NC(=O)CC)OC (stereo not given) | 500 mg/kg |
| COC(=O)C1=C(C)NC(C)=C(C(=O)O[C@H]2CCN(Cc3ccccc3)C2)[C@H]1c1cccc([N+](=O)[O-])c1 | 105 mg/kg |
| Cc1ccc(S(=O)(=O)OCCCl)cc1 | 498 mg/kg |
| CCC(CC)CO | 1850 mg/kg |
| CC(CN)NCCO (stereo not given) | 4920 mg/kg |
| C=CCN(CC=C)C(=O)CCl | 700 mg/kg |
| Cc1nc(N)nc(N)c1-c1ccc(Br)cc1 | 250 mg/kg |
| CNC(=O)Oc1ccccc1C(OC)OC | 160 mg/kg |
| O=COCCCc1ccccc1 | 4090 mg/kg |
| Cc1cc(C(C)(C)C)c(O)c(C)c1CC1=NCCN1 | 0.8 mg/kg and 0.68 mg/kg |
| CN1CCN(c2c(F)cc3c(=O)c(C(=O)O)cn4c3c2SCC4)CC1 | 501 mg/kg |
| CCCCN(COC(C)=O)N=O | 1500 mg/kg |
| CCCCn1c2ccccc2c2cc(N)ccc21 | 946 mg/kg |
| COc1ccc2cc(CCC(C)=O)ccc2c1 | 3880 mg/kg |
| CCN(CC)c1ccc(N)c(C)c1 | 200 mg/kg |
| CC(C)(C)C(=O)CCC1C(=O)N(c2ccccc2)N(c2ccccc2)C1=O | 455 mg/kg |
| C#CC(C)(C)N | 1470 mg/kg |
| CCC1(CCC(C)C)C(=O)NC(=O)NC1=O | 250 mg/kg |
| O=S(=O)(F)C(F)(F)C(F)(F)C(F)(F)C(F)(F)C(F)(F)C(F)(F)C(F)(F)C(F)(F)F | 154 mg/kg |
| CC(C)CCN(C)C | 225 mg/kg |
| CS(=O)(=O)OCCCN(CCCOS(C)(=O)=O)C1CCCCC1 | 375 mg/kg |
| Cc1cccc(C#N)c1 | 3000 mg/kg |
| CCCCNC(=O)OCC(C)(CCC)COC(N)=O (stereo not given) | 1040 mg/kg |
| CCCCOC(=O)CC(C(=O)OCCCC)P(=O)(OCCCC)OCCCC (stereo not given) | 25000 mg/kg |
| OC1(c2ccccc2)c2ccccc2C2=NCCN21 (stereo not given) | 300 mg/kg |

| Compound | LD50 |
| --- | --- |
| CN(CCO)Cc1cc(C(=O)c2cccs2)cc(C(C)(C)C)c1O | 1000 mg/kg |
| C=C(Cl)C(Cl)CCl (stereo not given) | 341 mg/kg |
| N=C(N)NCCN1CCCCCCC1 | 1050 mg/kg |
| CC(C)(C)NC(=O)[C@H]1CC[C@H]2[C@@H]3CC[C@H]4NC(=O)C=C[C@]4(C)[C@H]3CC[C@]12C | 418 mg/kg |
| O=C1Nc2ccc(Cl)cc2C(c2ccccc2Cl)=NC1O (stereo not given) | 4500 mg/kg |
| CNC(=O)N(O)c1ccccc1 | 3400 mg/kg |
| C=CCn1c(=O)[nH]c(=O)n(CC=C)c1=O | 930 mg/kg |
| O=C(Cl)c1ccc(Cl)cc1Cl | 4640 mg/kg |
| C=C(C)C(=O)Nc1ccc(Cl)c(Cl)c1 | 1800 mg/kg |
| O=C(CCCN1CCC(O)CC1)c1ccc(F)cc1 | 2400 mg/kg |
| O=C(OCC1CO1)c1ccccc1 (stereo not given) | 1410 mg/kg |
| O=[N+]([O-])c1ccc(Cl)cc1C(F)(F)F | 554 mg/kg |
| C[N+](C)([O-])CCC=C1c2ccccc2CCc2ccccc21 | 1800 mg/kg |
| CC(CN1CCN(CCOCCO)CC1)CN1c2ccccc2Sc2ccccc21 (stereo not given) | 400 mg/kg |
| NC(=O)N1c2ccccc2C=Cc2ccccc21 | 1960 mg/kg |
| CNC(=O)Oc1ccccc1C1OCCCO1 | 142 mg/kg |
| COP(=S)(OC)Oc1cc(Cl)c(I)cc1Cl | 2330 mg/kg |
| CCOc1ccc2c(OS(=O)(=O)O)c(-c3sc4cc(OCC)ccc4c3OS(=O)(=O)O)sc2c1 | 6700 mg/kg |
| CCN(CC)CCOc1ccc2c(c1)C(=O)c1cc(OCCN(CC)CC)ccc1-2 | 852 mg/kg |
| N=C(N)Nc1ccc(C(=O)Oc2ccc3cc(C(=N)N)ccc3c2)cc1 | 3050 mg/kg |
| ClCCOCOCCCl | 65 mg/kg |
| CCOC(C1=NCCCN1)c1cccc(F)c1 (stereo not given) | 1000 mg/kg |
| CC(C)(O)CCc1ccccc1 | 2200 mg/kg |
| Nc1cccc(C(O)CNC2CC2)c1 (stereo not given) | 3250 mg/kg |
| COc1ccc([C@@H]2Sc3ccccc3N(CCN(C)C)C(=O)[C@@H]2OC(C)=O)cc1 | 560 mg/kg |

| Compound | LD50 |
| --- | --- |
| COP(=O)(OC)OC(Br)C(Br)(Br)Br (stereo not given) | 184 mg/kg |
| CCCCCCCCCCCC(=O)N(CCO)CCO | 2700 mg/kg |
| Cn1cc(C(O)=Nc2cccc3c2C2CCC3C2=C(Cl)Cl)c(C(F)F)n1 (stereo not given) | 55 mg/kg |
| CCOCCOC(=O)C(C)Oc1ccc(Oc2ncc(C(F)(F)F)cc2Cl)cc1 (stereo not given) | 518 mg/kg |
| NC1=NCC(CN2CCN(c3ccccc3)CC2)O1 (stereo not given) | 575 mg/kg |
| CCCCCCCCCCCCOS(=O)(=O)O | 1300 mg/kg |
| CCOP(=S)(OCC)OCCSCC | 7.5 mg/kg |
| CCCCSc1nc2ccccc2s1 | 1270 mg/kg |
| CCC1OC1(C)C (stereo not given) | 3500 mg/kg |
| O=NN(CCCl)C(=O)NCCS(=O)(=O)N1CCCCC1 | 125 mg/kg |
| N#CC(Cl)CS(=O)(=O)c1ccccc1 (stereo not given) | 540 mg/kg |
| Cc1c2ccccc2c(C)c2c1ccc1ccccc12 | 327 mg/kg |
| CC(=O)OCC1=CC[C@@H]2C[C@H]1C2(C)C | 2600 mg/kg |
| N#C[SeH] | 10 mg/kg |
| NN=C(N)N | 500 mg/kg |
| CCCCCCCCCCCCOCCOCCOCCOS(=O)(=O)O | 1820 mg/kg |
| Cn1c([N+](=O)[O-])cnc1/C=C/c1ccnc(N)n1 | 7600 mg/kg |
| N#CCCl | 220 mg/kg |
| CC(=O)OCC=Cc1ccccc1 | 3300 mg/kg |
| CC(=O)OC(C(Cl)(Cl)Cl)P(=O)(Oc1ccccc1)Oc1ccccc1 (stereo not given) | 3280 mg/kg |
| S=C(Cl)Cl | 929 mg/kg |
| CC(=O)NC(N)=S | 50 mg/kg |
| C=CCc1ccc(OC(=O)NC)c(OC)c1 | 250 mg/kg |
| CCCCB(CCCC)CCCC | 1120 mg/kg |
| COc1cccc2c1C(=O)c1c(O)c3c(c(O)c1C2=O)C[C@@](O)(C(C)=O)C[C@@H]3O[C@H]1C[C@H](N)[C@H](O)[C@H](C)O1 | 336 mg/kg and 290 mg/kg |

| Compound | LD50 |
| --- | --- |
| CCN(CCC(=O)OC)c1ccccc1 | 2450 mg/kg |
| CCS(=O)(=O)CCOP(=S)(OC)OC | 500 mg/kg |
| CCN(CC)CCN(CCN(CC)CC)n1cc(-c2ccccc2)c2ccccc21 | 800 mg/kg |
| Cn1c([N+](=O)[O-])cnc1COC(N)=O | 3400 mg/kg |
| CC(C)c1ccccc1OP(=O)(Oc1ccccc1)Oc1ccccc1 | 10000 mg/kg |
| CC(=O)OC(C)C(Cl)(Cl)Cl (stereo not given) | 900 mg/kg |
| CCOP(=O)(OCC)SCSc1cc(Cl)ccc1Cl | 38 mg/kg |
| N#Cc1ccc2nc(C(F)(F)F)[nH]c2c1 | 4.41 mg/kg |
| Cn1c(=O)c2c(ncn2CC(=O)O)n(C)c1=O | 900 mg/kg |
| CN(C)C(=O)COC(=O)Cc1ccc(OC(=O)c2ccc(NC(=N)N)cc2)cc1 | 3000 mg/kg |
| O=c1n(CC2CO2)c(=O)n(CC2CO2)n1CC1CO1 (stereo not given) | 250 mg/kg |
| O=C1C[C@@H]2OCC=C3CN4CC[C@]56c7ccccc7N1[C@H]5[C@H]2[C@H]3C[C@H]46 | 16.2 mg/kg |
| CCCS(=O)(=O)/C=C/S(=O)(=O)CCC | 200 mg/kg |
| O=C1N(Cl)C2C(N1Cl)N(Cl)C(=O)N2Cl (stereo not given) | 2150 mg/kg |
| Nc1ccncc1 | 32 mg/kg |
| CC(C)=CCCC(C)CCOC=O (stereo not given) | 8400 mg/kg |
| O=C(Cn1ccnc1)c1ccc2ccccc2c1 | 504 mg/kg |
| O[C@@H](c1cc(C(F)(F)F)nc2c(C(F)(F)F)cccc12)[C@H]1CCCCN1 | 880 mg/kg |
| O=C1c2ccccc2C(=O)c2c1cccc2S(=O)(=O)O | 20000 mg/kg |
| CCOc1ccc(/C=C2\NCCc3cc(OCC)c(OCC)cc32)cc1OCC | 540 mg/kg |
| CCN(CC(F)(F)F)N=O | 960 mg/kg |
| Cc1cccs1 | 3200 mg/kg |
| C=CC(=O)OCC(CO)(COC(=O)C=C)COC(=O)C=C | 1830 mg/kg |
| NC(=S)Cc1cccc2ccccc12 | 60 mg/kg |
| O=c1c(O)c(-c2ccc(O)c(O)c2)oc2cc(O)cc(O)c12 | 161 mg/kg |

| Compound | LD50 |
| --- | --- |
| c1ccc(-c2nnco2)cc1 | 440 mg/kg |
| CCOC(=O)CCC(=O)OCC | 8530 mg/kg |
| COP(=S)(OC)OC1CC(C)CCC1C(C)C (stereo not given) | 750 mg/kg |
| CCOP(=S)(OC(C)C)ON1C(=O)c2ccccc2C1=O (stereo not given) | 250 mg/kg |
| CC(=O)N(C)C(=O)Oc1cccc(C(C)(C)C)c1 | 1000 mg/kg |
| CCC1(c2cccc(O)c2)CCCCN(C)C1 (stereo not given) | 1260 mg/kg |
| Nc1cc(Cl)ccc1O | 690 mg/kg |
| CCOC(=O)CCC(=O)CC1(O)C2(Cl)C3(Cl)C4(Cl)C(Cl)(Cl)C5(Cl)C3(Cl)C1(Cl)C5(Cl)C42Cl (stereo not given) | 240 mg/kg |
| O=c1nc(O)n(Cl)c(=O)n1Cl | 1220 mg/kg |
| CNC(=O)c1cc(-c2ccccc2)ccc1OCCO | 2700 mg/kg |
| COc1ccc(CNCC(O)COc2ccc3[nH]c(=O)ccc3c2)cc1OC (stereo not given) | 1500 mg/kg |
| O=C(O)C(F)(F)C(F)(F)C(F)(F)C(F)(F)C(F)(F)C(F)F | 1440 mg/kg |
| Oc1cc(Cl)c(Cl)cc1Cl | 1620 mg/kg |
| Cc1c(C)c(C)c2[nH]c(C(F)(F)F)nc2c1C | 58 mg/kg |
| COc1ccccc1NC(=O)C(N=Nc1ccc(-c2ccc(N=NC(C(C)=O)C(=O)Nc3ccccc3OC)c(Cl)c2)cc1Cl)C(C)=O (stereo not given) | 2230 mg/kg |
| CC(=O)CCC1C(=O)N(c2ccccc2)N(c2ccccc2)C1=O | 720 mg/kg |
| C#CCN1CCC2=C(C1)c1c(O)cc(C(C)C(C)CCCCC)cc1OC2(C)C (stereo not given) | 900 mg/kg |
| CCCCCN(CCCCC)N=O | 1750 mg/kg |
| O=C(O)/C=C/c1ccc(Cn2ccnc2)cc1 | 4160 mg/kg |
| COc1cc(C)c2[nH]c(=O)sc2c1 | 7580 mg/kg |
| COc1c(Cl)cc2[nH]c(C(F)(F)F)nc2c1Cl | 8.03 mg/kg |
| CCC1(CC)Oc2cccc(OC(=O)N(C)C(C)=O)c2O1 | 375 mg/kg |
| O=C(O)[C@@H]1CC[C@H](C(=O)O)C1 | 3250 mg/kg |
| Cc1cccc(CN2CCN(C(c3ccccc3)c3ccc(Cl)cc3)CC2)c1 (stereo not given) | 1750 mg/kg |
| C=CN(CC)N=O | 88 mg/kg |

| Compound | LD50 |
| --- | --- |
| CCOc1ccccc1OS(=O)(=O)NC(O)=Nc1nc(OC)cc(OC)n1 | 2910 mg/kg |
| O=[N+]([O-])c1ccc(Cl)c2nc(C(F)(F)F)[nH]c12 | 11.1 mg/kg |
| CCCCNC(=S)Nc1ccccc1 | 150 mg/kg |
| CC(Cl)(Cl)Cl | 9600 mg/kg |
| COP(=S)(OC)SCSc1cc(Cl)cc(Cl)c1 | 443 mg/kg |
| CN(C)C(=S)SSC(=S)N(C)C | 560 mg/kg |
| CN(C)c1ccc(N=NS(=O)(=O)O)cc1 | 60 mg/kg |
| COc1ccc2c(c1)[C@@]13CCCC[C@H]1[C@@H](C2)N(C)CC3 | 242 mg/kg |
| Cc1cc(Cl)ccc1NC=O | 564 mg/kg |
| CCCCc1c(C)nc(NCC)nc1OS(=O)(=O)N(C)C | 4000 mg/kg |
| C=C1C[C@]23C[C@@]1(O)CC[C@H]2[C@@]12C=C[C@H](O)[C@@](C)(C(=O)O1)[C@H]2[C@@H]3C(=O)O | 6300 mg/kg |
| CC(C)(C)NCCCCN | 810 mg/kg |
| CCOC(=O)Nc1ccc2c(c1)N(C(=O)CCN1CCOCC1)c1ccccc1CC2 | 623 mg/kg |
| CCCCNCCCCCCN | 536 mg/kg |
| Cc1cc(C)c(C2=C(OC(=O)OC(C)C)c3ccccc3C2=O)c(C)c1 | 707 mg/kg |
| CC(O)CN(CC(C)O)CC(C)O (stereo not given) | 4730 mg/kg |
| CC(C)CNC(=O)CF | 42 mg/kg |
| Nc1nccs1 | 480 mg/kg |
| CCCSP(=O)(OCC)Oc1ccc(Cl)cc1Cl (stereo not given) | 320 mg/kg |
| CNc1ccc(C(O)(c2ccc(N(C)C)cc2)c2ccc(N(C)C)cc2)cc1 | 500 mg/kg |
